Here are results for 8 compounds from PubChem BioAssay (NCI).

Common to all, as to assay: NCI tumour cell line growth inhibition, 48 h
The test system of assay [1] is BT-549 breast.
The test system of assay [2] is HCT-15 colon.
Assay [3] has as its system HS 578T breast.
Assay [4] concerns HT29 colon.
Assay [5] relates to LOX IMVI melanoma.
The subject of assay [6] is M14 melanoma.
Assay [7] relates to MDA-N.
In assay [8] the test system is NCI-H23 lung.
Assay [9] concerns OVCAR-8 ovarian.
Assay [10] deals with PC-3 prostate.
The test system of assay [11] is RPMI-8226 leukemia.
Assay [12] deals with SK-MEL-2 melanoma.
Assay [13] concerns SN12C renal.
Assay [14] has as its system SR leukemia.
The subject of assay [15] is TK-10 renal.
In assay [16] the test system is UACC-62 melanoma.
The subject of assay [17] is UO-31 renal.

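How tested: cells in 96-well plates exposed to compound for 48 hours at five concentrations. At the GI50, growth is halved. The concentration for full growth arrest is given as TGI.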

On to `O=[N+]([O-])/C(C(Cl)=C(Cl)Cl)=C(/Sc1ccccc1)N1CCOCC1`, for which the TGI in assay [1] was 15 µM; in [2], 10.9 µM; in [3] it was 59.5 µM; in assay [4], 26.2 µM; in assay [5] it was 3.04 µM; in assay [6] it was 9.24 µM. Also, the TGI was determined as 14.6 µM in assay [7]; 29.8 µM in assay [8]; 4.06 µM in assay [9]; 14.8 µM in [10]; 5.73 µM in assay [11]; 18.1 µM in [12]. For the same compound, the TGI worked out at 19.3 µM in [13]; 5.62 µM in assay [14]; 18.3 µM in assay [15]; 14 µM in assay [16]; 16.6 µM in assay [17].
For the compound `C/C=C/[C@@H]1O[C@H](CC#C[Si](C)(C)C)[C@@]2(C=O)C(C)=CC[C@H](C(C)C)[C@@H]12`, the TGI in [1] is 49.7 µM; in [2], 48.5 µM; in assay [3], over 100 µM; in [4] it was 46.2 µM; in assay [5] it was 18.2 µM; in assay [6], 37.2 µM. In addition, the TGI in assay [7] is 43.9 µM; in [8], 49.6 µM; in assay [9], over 100 µM; in assay [10], 33.8 µM; in [11], 52.2 µM; in [12] it was 33.5 µM. For the same compound, the TGI in [13] was 34.8 µM; in assay [14], 56.3 µM; in assay [15], 31.5 µM; in assay [16], 32.6 µM; in [17], 3.53 µM.
Regarding `CC(C)(N=NC(C)(C)C1=NCCN1)C1=NCCN1`, the TGI in assay [1], in assay [2], in assay [3], in assay [4], in [5] and in assay [6] was over 100 µM in each case. The TGI in [7], in assay [8], in assay [9], in assay [10], in assay [11] and in assay [12] was over 100 µM each time. The TGI in assay [13], in assay [14], in assay [15], in [16] and in assay [17] was over 100 µM throughout. The GI50 in assay [11] and in assay [14] was over 100 µM throughout.
On to `CCOP(=O)(OCC)C(Cc1ccccc1)N=C(c1ccccc1)c1ccccc1` (stereo not drawn), for which the TGI in [1] is 27 µM; in [2], 25 µM; in [3] it was 26.6 µM; in assay [4], 27.6 µM; in assay [5], 24.7 µM; in assay [6], 30.4 µM. Besides, the TGI is 29.1 µM in [7]; 28.6 µM in [8]; 33.8 µM in assay [9]; 16.8 µM in assay [10]; over 100 µM in assay [11]; 38.2 µM in [12]. Also, the TGI in [13] is 35.2 µM; in assay [14], over 100 µM; in [15] it was 23.6 µM; in assay [16], 26.1 µM; in assay [17], 24.4 µM.
With `C=CC1(CBr)CCC(C(C)(C)Br)O1` (stereo not drawn), the TGI was 30.4 µM in [1]; 23.8 µM in assay [2]; 39.6 µM in assay [3]; 14.4 µM in assay [4]; 4.34 µM in assay [5]; 27.7 µM in [6]. Besides, the TGI in [7] was 22.7 µM; in [8], 19.9 µM; in assay [9], 9.45 µM; in assay [10], 24.5 µM; in assay [11], 6.11 µM; in assay [12], 28.1 µM. Also, the TGI in [13] amounted to 33.1 µM; in assay [14], 8.58 µM; in assay [15], 28.5 µM; in [16], 22.3 µM; in assay [17] it was 25.7 µM.
Regarding `O=C(c1ccco1)N1CCN(C(=O)c2ccco2)C1=S`, the TGI in assay [1] was 33.9 µM; in assay [2], 26.3 µM; in [3] it was over 100 µM; in assay [4] it was 24.2 µM; in [5], 14.9 µM; in assay [6], 40.5 µM. The TGI worked out at 22.6 µM in [7]; 50.3 µM in [8]; 62.5 µM in assay [9]; 17.5 µM in assay [10]; 7.31 µM in assay [11]; 31 µM in assay [12]. Further, the TGI in [13] was found to be 16.4 µM; in assay [14], 12.1 µM; in assay [15] it was 19.8 µM; in [16], 19.1 µM; in assay [17] it was 10.1 µM.
Take `COc1ccc(NC(C)=O)c(C(=O)CCNC(C)=O)c1`: the TGI in assay [1], in [2], in assay [3], in assay [4], in assay [5] and in assay [6] was over 100 µM throughout. In addition, the TGI in assay [7], in assay [8], in [9], in assay [10], in assay [11] and in assay [12] was over 100 µM each time. Also, the TGI in assay [13], in [14], in assay [15], in assay [16] and in assay [17] was over 100 µM throughout.
As for `C=CCOc1ccc(C2c3c([nH][nH]c3=O)CC(C)(O)C2C(=O)OC)cc1OC` (stereo not drawn), the TGI in assay [1], in [2], in assay [3], in [4], in assay [5] and in assay [6] was over 100 µM throughout. Further, the TGI in assay [7], in [8], in [9], in assay [10], in [11] and in assay [12] was over 100 µM each time. Further, the TGI in [13], in assay [14], in [15], in [16] and in [17] was over 100 µM each time.
